# Where a SMILES comes first, the peptide text is derived from it.
# Key:
# [1] = Experimental: In this Example, Human Ezrin Peptide therapy comprised oral administration of a 2 mg/2 ml aqueous solution of HEP1 to HCV patients who were also infected with HIV. The patients were treated twice a day for 10 days followed by once a day for 20 days in the absence of any other anti-HIV or anti-HCV therapy. Blood samples from patients were analysed before treatment and 30 days after the end of the 30 day treatment period.
# [2] = children; cited from earlier work
compound,measurement,setting,value
CC(C)[C@H](NC(=O)[C@@H](NC(=O)[C@H](CCC(=O)O)NC(=O)[C@H](CCCNC(=N)N)NC(=O)[C@H](CCCNC(=N)N)NC(=O)[C@H](CCCCN)NC(=O)[C@H](CCCCN)NC(=O)[C@H](CCC(=O)O)NC(=O)[C@@H](N)[C@@H](C)O)[C@@H](C)O)C(=O)N[C@@H](CCC(=O)O)C(=O)N[C@@H](CCCNC(=N)N)C(=O)N[C@@H](CCC(=O)O)C(=O)N[C@@H](CCCCN)C(=O)N[C@@H](CCC(=O)O)C(=O)O [HEP1] (H-TEKKRRETVEREKE-OH),CD4/CD8 index,[1]; HIV+HCV infected patients,improved
same,average increase of CD4 cells,[1]; HIV+HCV infected patients,70 cells per microlitre
same,patients with increased CD4 cells,[1]; HIV+HCV infected patients,18 of 19
same,side effects or adverse events,[1]; during treatment with HEP1,No side effects or adverse events were observed
same,side-effects or adverse reactions,[2],No side-effects or adverse reactions
